Assay results reported in US12668600B2 (Kumquat Biosciences Inc., priority 2023, dated 2026).

Tests used:
Assay type in all cases: biochemical
[1] = molecular target: T1, KRAS G12D (Homo sapiens, UniProt P01116, G12D); test: HTRF KRAS-SOS1 interaction assay, KRAS G12D; conditions: binned ≤2 μM / >2 μM, read-out: Inhibition of KRAS G12D (IC50)
T1 construct: made in house; host or cells: E. coli, e.g. BL21 (DE3)
Outline: (§1)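 GST-tagged KRAS (WT or mutant) with anti-GST-Eu donor and His-hSOS1 with anti-6His-XL665 acceptor were combined in 5 mM HEPES pH 7.4, 150 mM NaCl, 1 mM DTT, 0.05% BSA, 0.0025% Igepal. After ~10 min, HTRF was read (ex 337, em 620/665 nm); IC50 from 665/620 ratio.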

[2] = molecular target: T2, KRAS G12V (Homo sapiens, UniProt P01116, G12V); test: HTRF KRAS-SOS1 interaction assay, KRAS G12V; conditions: binned ≤2 μM / >2 μM, read-out: Inhibition of KRAS G12V (IC50)
T2 construct: made in house; host or cells: E. coli, e.g. BL21 (DE3)
Outline: as §1

[3] = molecular target: T3, KRAS G12S (Homo sapiens, UniProt P01116, G12S); test: HTRF KRAS-SOS1 interaction assay, KRAS G12S; conditions: binned ≤2 μM / >2 μM, read-out: Inhibition of KRAS G12S (IC50)
T3 construct: made in house; host or cells: E. coli, e.g. BL21 (DE3)
Outline: as §1

[4] = molecular target: T4, KRAS WT (Homo sapiens, UniProt P01116); test: HTRF KRAS-SOS1 interaction assay, wildtype KRAS; conditions: binned ≤2 μM / >2 μM, read-out: Inhibition of KRAS WT (IC50)
T4 construct: made in house; host or cells: E. coli, e.g. BL21 (DE3)
Outline: as §1

T2 sequence (P01116 1-188 isoform P01116-2 G12V): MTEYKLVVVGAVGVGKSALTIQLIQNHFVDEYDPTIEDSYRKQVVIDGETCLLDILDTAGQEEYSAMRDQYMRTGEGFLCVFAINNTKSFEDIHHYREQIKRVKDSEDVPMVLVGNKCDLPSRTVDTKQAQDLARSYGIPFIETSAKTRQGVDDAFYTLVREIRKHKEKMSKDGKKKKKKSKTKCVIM
T1 sequence (P01116 1-188 isoform P01116-2 G12D): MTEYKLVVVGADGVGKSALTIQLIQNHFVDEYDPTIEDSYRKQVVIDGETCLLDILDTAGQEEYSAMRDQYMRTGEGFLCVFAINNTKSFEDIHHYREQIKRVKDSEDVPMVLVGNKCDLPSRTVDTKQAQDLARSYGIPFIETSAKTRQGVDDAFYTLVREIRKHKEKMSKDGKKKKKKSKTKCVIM
T3 sequence (P01116 1-188 isoform P01116-2 G12S): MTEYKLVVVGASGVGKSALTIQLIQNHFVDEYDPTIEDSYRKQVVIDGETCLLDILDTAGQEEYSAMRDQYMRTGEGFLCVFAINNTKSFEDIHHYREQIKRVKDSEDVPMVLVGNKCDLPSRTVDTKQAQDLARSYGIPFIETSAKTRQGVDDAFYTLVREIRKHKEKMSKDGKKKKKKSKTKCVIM
T4 sequence (P01116 1-188 isoform P01116-2): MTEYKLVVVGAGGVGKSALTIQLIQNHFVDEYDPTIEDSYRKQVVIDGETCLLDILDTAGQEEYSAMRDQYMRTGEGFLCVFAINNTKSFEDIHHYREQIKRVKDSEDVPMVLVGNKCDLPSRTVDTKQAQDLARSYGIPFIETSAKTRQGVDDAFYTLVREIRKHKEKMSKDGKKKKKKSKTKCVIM

Work on `C[C@H](c1cccnc1N)N1CCOc2c(C(F)(F)F)c(-c3ccc(F)c4sc(N)c(C#N)c34)c(F)c3nc(OC[C@@]45CCCN4CC(=C(F)F)C5)nc1c23` [Compound 856, 2-amino-4-(4-((R)-1-(2-aminopyridin-3-yl)ethyl)-2-(((S)-2-(difluoromethylene)tetrahydro-1H-pyrrolizin-7a(5H)-yl)methoxy)-10-fluoro-8-(trifluoromethyl)-5,6-dihydro-4H-[1,4]oxazepino[5,6,7-de]quinazolin-9-yl)-7-fluorobenzo[b]thiophene-3-carbonitrile] yielded an IC50 [1] of at most 2000 nM, an IC50 [2] of at most 2000 nM and an IC50 [3] of at most 2000 nM. The IC50 [4] was at most 2000 nM.
Work on `C[C@H](c1cccnc1N)N1CCOc2c(C(F)(F)F)c(-c3ccc(F)c4sc(N)c(C#N)c34)c(F)c3nc(OCC4(CN5[C@H](C)COC[C@@H]5C)CC4)nc1c23` (single isomer, unassigned) [Compound 719] yielded an IC50 [1] of over 2000 nM, an IC50 [2] of over 2000 nM and an IC50 [3] of over 2000 nM. For the same compound, the IC50 [4] was over 2000 nM.
`CC(c1cccnc1N)N1c2nc(OC[C@@]34CCCN3C[C@H](F)C4)nc3c(F)c(-c4ccc(F)c5sc(N)c(C#N)c45)c(Cl)c(c23)OC[C@@H]1C(F)F` (mixture of isomers) [Compound 790, 2-amino-4-((5R)-4-(1-(2-aminopyridin-3-yl)ethyl)-8-chloro-5-(difluoromethyl)-10-fluoro-2-(((2R,7aS)-2-fluorotetrahydro-1H-pyrrolizin-7a(5H)-yl)methoxy)-5,6-dihydro-4H-[1,4]oxazepino[5,6,7-de]quinazolin-9-yl)-7-fluorobenzo[b]thiophene-3-carbonitrile] was tested, and the IC50 [1] was at most 2000 nM, the IC50 [2] was at most 2000 nM and the IC50 [3] was at most 2000 nM. It also gave an IC50 [4] of at most 2000 nM.
Work on `C[C@H](c1cccnc1N)N1CCOc2c(Cl)c(-c3ccc(F)c4sc(N)c(C#N)c34)c(F)c3nc(OC[C@@H]4CC(F)(F)CN4C)nc1c23` (single isomer, unassigned) [Compound 741] yielded an IC50 [1] of at most 2000 nM, an IC50 [2] of at most 2000 nM and an IC50 [3] of at most 2000 nM. For the same compound, the IC50 [4] was at most 2000 nM.
`C[C@H](c1cccnc1Cl)N1CCOc2c(C(F)(F)F)c(-c3ccc(F)c4sc(N)c(C#N)c34)c(F)c3nc(OC[C@@]45CCCN4C[C@H](F)C5)nc1c23` [Compound 730, 2-amino-4-(4-((R)-1-(2-chloropyridin-3-yl)ethyl)-10-fluoro-2-(((2R,7aS)-2-fluorotetrahydro-1H-pyrrolizin-7a(5H)-yl)methoxy)-8-(trifluoromethyl)-5,6-dihydro-4H-[1,4]oxazepino[5,6,7-de]quinazolin-9-yl)-7-fluorobenzo[b]thiophene-3-carbonitrile] showed an IC50 [1] of at most 2000 nM, an IC50 [2] of at most 2000 nM and an IC50 [3] of at most 2000 nM. For the same compound, the IC50 [4] was at most 2000 nM.
`C[C@H](c1cccnc1N)N1CCOc2c(C(F)(F)F)c(-c3ccc(F)c4sc(N)c(C#N)c34)c(F)c3nc(OCC4(CN5CC[C@@H](F)C5)CC4)nc1c23` [Compound 698, 2-amino-4-(4-((R)-1-(2-aminopyridin-3-yl)ethyl)-10-fluoro-2-((1-(((R)-3-fluoropyrrolidin-1-yl)methyl)cyclopropyl)methoxy)-8-(trifluoromethyl)-5,6-dihydro-4H-[1,4]oxazepino[5,6,7-de]quinazolin-9-yl)-7-fluorobenzo[b]thiophene-3-carbonitrile] showed an IC50 [1] of at most 2000 nM, an IC50 [2] of at most 2000 nM and an IC50 [3] of at most 2000 nM. The IC50 [4] was at most 2000 nM.
`COCC[C@H](c1cccnc1N)N1CCOc2c(C(F)(F)F)c(-c3ccc(F)c4sc(N)c(C#N)c34)c(F)c3nc(OC[C@@]45CCCN4C[C@H](F)C5)nc1c23` [Compound 782, 2-amino-4-(4-((R)-1-(2-aminopyridin-3-yl)-3-methoxypropyl)-10-fluoro-2-(((2R,7aS)-2-fluorotetrahydro-1H-pyrrolizin-7a(5H)-yl)methoxy)-8-(trifluoromethyl)-5,6-dihydro-4H-[1,4]oxazepino[5,6,7-de]quinazolin-9-yl)-7-fluorobenzo[b]thiophene-3-carbonitrile] was tested, and the IC50 [1] was at most 2000 nM, the IC50 [2] was at most 2000 nM and the IC50 [3] was at most 2000 nM. It also gave an IC50 [4] of at most 2000 nM.
For `Cc1cnc(N)c([C@@H](C)N2CCOc3c(C(F)(F)F)c(-c4ccc(F)c5sc(N)c(C#N)c45)c(F)c4nc(OC[C@@]56CCCN5C[C@H](F)C6)nc2c34)n1` (single isomer, unassigned) [Compound 718], the IC50 [1] was over 2000 nM, the IC50 [2] was at most 2000 nM and the IC50 [3] was at most 2000 nM. The IC50 [4] was at most 2000 nM.
In the case of `N#Cc1c(N)sc2c(F)ccc(-c3c(C(F)(F)F)c4c5c(nc(OCC6(CN7CCC8(CC7)CC8(F)F)CC6)nc5c3F)N([C@H](CCC3CCOCC3)c3cccnc3N)CCO4)c12` [Compound 907, 2-amino-4-(4-((R)-1-(2-aminopyridin-3-yl)-3-(tetrahydro-2H-pyran-4-yl)propyl)-2-((1-((1,1-difluoro-6-azaspiro[2.5]octan-6-yl)methyl)cyclopropyl)methoxy)-10-fluoro-8-(trifluoromethyl)-5,6-dihydro-4H-[1,4]oxazepino[5,6,7-de]quinazolin-9-yl)-7-fluorobenzo[b]thiophene-3-carbonitrile], the IC50 [1] is reported as at most 2000 nM, the IC50 [2] is reported as at most 2000 nM and the IC50 [3] is reported as at most 2000 nM. For the same compound, the IC50 [4] was at most 2000 nM.
Compound `C#Cc1c(F)ccc2cc(O)cc(-c3nc4c5c(nc(O[C@@H](C)[C@@H]6CCCN6C)nc5c3F)N([C@H](C)c3cccnc3N)CCO4)c12` (single isomer, unassigned) [Compound 779] has an IC50 [1] of at most 2000 nM, an IC50 [2] of at most 2000 nM and an IC50 [3] of at most 2000 nM. The IC50 [4] was at most 2000 nM.
In the case of `C[C@H](c1cncnc1N)N1CCOc2c(C(F)(F)F)c(-c3ccc(F)c4sc(N)c(C#N)c34)c(F)c3nc(OCC4(CN5CCC(F)CC5)CC4)nc1c23` [Compound 908, 2-amino-4-(4-((R)-1-(4-aminopyrimidin-5-yl)ethyl)-10-fluoro-2-((1-((4-fluoropiperidin-1-yl)methyl)cyclopropyl)methoxy)-8-(trifluoromethyl)-5,6-dihydro-4H-[1,4]oxazepino[5,6,7-de]quinazolin-9-yl)-7-fluorobenzo[b]thiophene-3-carbonitrile], the IC50 [1] is reported as at most 2000 nM, the IC50 [2] is reported as at most 2000 nM and the IC50 [3] is reported as at most 2000 nM. It also gave an IC50 [4] of at most 2000 nM.
`Cc1cnc(N)c([C@@H](C)N2CCOc3c(C(F)(F)F)c(-c4ccc(F)c5sc(N)c(C#N)c45)c(F)c4nc(OC[C@@]56CCCN5C[C@H](F)C6)nc2c34)c1` (single isomer, unassigned) [Compound 796] showed an IC50 [1] of at most 2000 nM, an IC50 [2] of at most 2000 nM and an IC50 [3] of at most 2000 nM. It also gave an IC50 [4] of at most 2000 nM.
Compound `N#Cc1c(N)sc2c(F)ccc(-c3c(C(F)(F)F)c4c5c(nc(OC[C@@]67CCCN6[C@H](COc6nccnc6C(F)F)CC7)nc5c3F)N([C@@H](c3cccnc3N)C(F)F)CCO4)c12` (single isomer, unassigned) [Compound 605] has an IC50 [1] of at most 2000 nM, an IC50 [2] of at most 2000 nM and an IC50 [3] of at most 2000 nM. The IC50 [4] was at most 2000 nM.
`C[C@H](c1cccnc1N)N1CCOc2c(Cl)c(-c3ccc(F)c4sc(N)c(C#N)c34)c(F)c3nc(OC[C@@]45CCCN4C[C@@]4(CC4(F)F)C5)nc1c23` [Compound 740, 2-amino-4-((R)-4-((R)-1-(2-aminopyridin-3-yl)ethyl)-8-chloro-2-(((1S,7a'S)-2,2-difluorodihydro-1′H,3′H-spiro[cyclopropane-1,2′-pyrrolizin]-7a′ (5′H)-yl)methoxy)-10-fluoro-5,6-dihydro-4H-[1,4]oxazepino[5,6,7-de]quinazolin-9-yl)-7-fluorobenzo[b]thiophene-3-carbonitrile] gave an IC50 [1] of at most 2000 nM, an IC50 [2] of at most 2000 nM and an IC50 [3] of at most 2000 nM. It also gave an IC50 [4] of at most 2000 nM.
`C=C1CN2CCC[C@@]2(COc2nc3c4c(c(C(F)(F)F)c(-c5ccc(F)c6sc(N)c(C#N)c56)c(F)c4n2)OCCN3[C@H](C)c2cc(Cl)cnc2N)C1` [Compound 690, 2-amino-4-(4-((R)-1-(2-amino-5-chloropyridin-3-yl)ethyl)-10-fluoro-2-(((S)-2-methylenetetrahydro-1H-pyrrolizin-7a(5H)-yl)methoxy)-8-(trifluoromethyl)-5,6-dihydro-4H-[1,4]oxazepino[5,6,7-de]quinazolin-9-yl)-7-fluorobenzo[b]thiophene-3-carbonitrile] showed an IC50 [1] of at most 2000 nM, an IC50 [2] of at most 2000 nM and an IC50 [3] of at most 2000 nM. For the same compound, the IC50 [4] was at most 2000 nM.
In the case of `N#Cc1c(N)sc2c(F)ccc(-c3c(C(F)(F)F)c4c5c(nc(OC[C@@]67CCCN6C[C@H](F)C7)nc5c3F)N([C@H](CC3CCC3)c3cccnc3N)CCO4)c12` (single isomer, unassigned) [Compound 902], the IC50 [1] is reported as over 2000 nM, the IC50 [2] is reported as over 2000 nM and the IC50 [3] is reported as over 2000 nM. The IC50 [4] was over 2000 nM.
`CC[S+]([O-])[C@H]1CN2CCC[C@@]2(COc2nc3c4c(c(Cl)c(-c5ccc(F)c6sc(N)c(C#N)c56)c(F)c4n2)OCCN3[C@H](C)c2cccnc2N)C1` (mixture of isomers) [Compound 906, 2-amino-4-(4-((R)-1-(2-aminopyridin-3-yl)ethyl)-8-chloro-2-(((2R,7aS)-2-(ethylsulfinyl)tetrahydro-1H-pyrrolizin-7a(5H)-yl)methoxy)-10-fluoro-5,6-dihydro-4H-[1,4]oxazepino[5,6,7-de]quinazolin-9-yl)-7-fluorobenzo[b]thiophene-3-carbonitrile] showed an IC50 [1] of at most 2000 nM, an IC50 [2] of at most 2000 nM and an IC50 [3] of at most 2000 nM. The IC50 [4] was at most 2000 nM.
